Eleven compounds from patent US20220380368A1, “SPIROCYCLIC ANDROGEN RECEPTOR PROTEIN DEGRADERS” (THE REGENTS OF THE UNIVERSITY OF MICHIGAN, priority 2019, published 2022) can be followed below.

Read-outs that look alike come from different tables or passages of the source.

This data set is described as follows: Mouse PK studies after oral and IV dosing. The class given is in vivo. The settings on record: for F: PO 3 mg/kg vs IV 1 mg/kg; for AUC(0-t) / clearance / half-life / Vd / Cmax / Tmax: in vivo; for clearance: read-out: IV Cl (converted); for Vd: read-out: IV VSS. As to the method:
The pharmacokinetics of representative Compounds of the Disclosure were determined after oral and IV dosing at the concentrations indicated in mouse (Table 7). […] The vehicles used in these studies are either (i) 10% PEG400+90% PBS (adjusted to pH to 8.0 by 0.5 N NaOH); or (ii) 100% PEG200.

[1] abbreviates: iv, 1 mg/kg, IV, dose 1 mg/kg, read-out: IV AUC(0 − t).
Where [2] appears, read: iv, 1 mg/kg, IV, dose 1 mg/kg, read-out: IV T1/2 (converted).
Setting [3] is: po, 3 mg/kg, PO, dose 3 mg/kg, read-out: PO AUC(0 − t).
The mark [4] stands for this setting: po, 3 mg/kg, PO, dose 3 mg/kg, read-out: PO T1/2 (converted).

Compound `C[C@H]1CC2(CCN(c3ccc(C(=O)N4CCN(C5CCN(c6ccc7c(c6)C(=O)N(C6CCC(=O)NC6=O)C7=O)CC5)CC4)cc3)CC2)CN1c1ccc(C#N)c(Cl)c1` (stereo partly drawn) [Cpd. No. 302] had an F of 27%. Moreover, the AUC(0-t) (in general, the area under the concentration-time curve up to a stated or last time point) under setting [1] turned out to be 5030 ng·h/mL. Moreover, where the note is “iv, 1 mg/kg, IV, dose 1 mg/kg”, the clearance is 3.17 mL/min/kg and the Vd was 1.45 L/kg. Further, the half-life under setting [2] was 7 h. Besides, for the setting “po, 3 mg/kg”, the peak concentration (Cmax) – broadly, the peak of the concentration-time curve – amounted to 526 ng/mL and the Tmax (in general, the time at which the peak concentration occurs) turned out to be 1.3 h. In addition, the AUC(0-t) under setting [3] came to 4050 ng·h/mL. Besides, the half-life under setting [4] was 7.3 h.
Regarding `C[C@H]1CC2(CCN(c3ccc(C(=O)N4CCN(C5CN(c6cc7c(cc6F)C(=O)N(C6CCC(=O)NC6=O)C7=O)C5)CC4)cc3)CC2)CN1c1ccc(C#N)c(Cl)c1` (stereo partly drawn) [Cpd. No. 344, 2-chloro-4-((3S)-8-(4-(4-(1-(2-(2,6-dioxopiperidin-3-yl)-6-fluoro-1,3-dioxoisoindolin-5-yl)azetidin-3-yl)piperazine-1-carbonyl)phenyl)-3-methyl-2,8-diazaspiro[4.5]decan-2-yl)benzonitrile], the F came out at 64%. Also, under setting [1], the AUC(0-t) was 4930 ng·h/mL. Moreover, for the setting “iv, 1 mg/kg, IV, dose 1 mg/kg”, the clearance was 3.17 mL/min/kg and the Vd turned out to be 1.58 L/kg. Also, the half-life under setting [2] is 6.9 h. Where the note is “po, 3 mg/kg”, the concentration peaked (Cmax) at 841 ng/mL and the Tmax was 4 h. In addition, the AUC(0-t) under setting [3] amounted to 9470 ng·h/mL. Under setting [4], the half-life was 6 h.
The compound `C[C@H]1CC2(CCN(c3ccc(C(=O)N4CCN(C5CN(c6ccc7c(c6)CN(C6CCC(=O)NC6=O)C7=O)C5)CC4)cc3)CC2)CN1c1ccc(C#N)c(Cl)c1` (stereo partly drawn) [Cpd. No. 346, 2-chloro-4-((3S)-8-(4-(4-(1-(2-(2,6-dioxopiperidin-3-yl)-1-oxoisoindolin-5-yl)azetidin-3-yl)piperazine-1-carbonyl)phenyl)-3-methyl-2,8-diazaspiro[4.5]decan-2-yl)benzonitrile] gave an F of 32%. Also, under setting [1], the AUC(0-t) came to 3030 ng·h/mL. In addition, for the setting “iv, 1 mg/kg, IV, dose 1 mg/kg”, the clearance is 5 mL/min/kg and the Vd was determined as 2.7 L/kg. Besides, under setting [2], the half-life was 8.8 h. Where the note is “po, 3 mg/kg”, the Cmax stood at 260 ng/mL and the Tmax was determined as 3.3 h. For the same compound, the exposure AUC(0-t) under setting [3] is 2950 ng·h/mL. In addition, the half-life under setting [4] is 7.2 h.
As to `C[C@H]1CC2(CCN(c3ccc(C(=O)N4CCN(C5CN(c6ccc7c(c6)C(=O)N(C6CCC(=O)NC6=O)C7)C5)CC4)cc3)CC2)CN1c1ccc(C#N)c(Cl)c1` (stereo partly drawn) [Cpd. No. 348, 2-chloro-4-((3S)-8-(4-(4-(1-(2-(2,6-dioxopiperidin-3-yl)-3-oxoisoindolin-5-yl)azetidin-3-yl)piperazine-1-carbonyl)phenyl)-3-methyl-2,8-diazaspiro[4.5]decan-2-yl)benzonitrile], the F is recorded as 12%. Also, the AUC(0-t) under setting [1] came out at 10100 ng·h/mL. For the same compound, where the note is “iv, 1 mg/kg, IV, dose 1 mg/kg”, the clearance is 1.67 mL/min/kg and the Vd came out at 0.9 L/kg. Further, the half-life under setting [2] is 7.5 h. Where the note is “po, 3 mg/kg”, the Cmax amounted to 334 ng/mL and the time of peak concentration (Tmax) is 2 h. For the same compound, under setting [3], the AUC(0-t) is 3740 ng·h/mL. Also, the half-life under setting [4] is 7.6 h.
In turn, `C[C@H]1CC2(CCN(c3ccc(C(=O)N4CCC(CN5CCN(c6ccc7c(c6)C(=O)N(C6CCC(=O)NC6=O)C7=O)CC5)CC4)cc3)CC2)CN1c1ccc(C#N)c(Cl)c1` (stereo partly drawn) [Cpd. No. 442, 2-chloro-4-((3S)-8-(4-(4-((4-(2-(2,6-dioxopiperidin-3-yl)-1,3-dioxoisoindolin-5-yl)piperazin-1-yl)methyl)piperidine-1-carbonyl)phenyl)-3-methyl-2,8-diazaspiro[4.5]decan-2-yl)benzonitrile] displayed an F of 42%. The AUC(0-t) under setting [1] is 5240 ng·h/mL. For the setting “iv, 1 mg/kg, IV, dose 1 mg/kg”, the clearance was 2.83 mL/min/kg and the Vd amounted to 1.7 L/kg. Further, under setting [2], the half-life is 9.2 h. Where the note is “po, 3 mg/kg”, the concentration peaked (Cmax) at 847 ng/mL and the time to peak (Tmax) was 2.67 h. For the same compound, the AUC(0-t) under setting [3] worked out at 6570 ng·h/mL. The half-life under setting [4] was 5.37 h.
On to `C[C@H]1CC2(CCN(c3ccc(C(=O)N4CCC(N5CCN(c6ccc7c(c6)C(=O)N(C6CCC(=O)NC6=O)C7=O)CC5)CC4)cc3)CC2)CN1c1ccc(C#N)c(Cl)c1` (stereo partly drawn) [Cpd. No. 443, 2-chloro-4-((3S)-8-(4-(4-(4-(2-(2,6-dioxopiperidin-3-yl)-1,3-dioxoisoindolin-5-yl)piperazin-1-yl)piperidine-1-carbonyl)phenyl)-3-methyl-2,8-diazaspiro[4.5]decan-2-yl)benzonitrile], for which the F is on record as 67%. Besides, the AUC(0-t) under setting [1] came to 8440 ng·h/mL. Also, where the note is “iv, 1 mg/kg, IV, dose 1 mg/kg”, the clearance was 2 mL/min/kg and the Vd was 1.02 L/kg. Moreover, the half-life under setting [2] was 7.1 h. In addition, under “po, 3 mg/kg”, the concentration peaked (Cmax) at 1870 ng/mL and the Tmax worked out at 2 h. Besides, under setting [3], the AUC(0-t) was 15500 ng·h/mL. Also, the half-life under setting [4] is 5.38 h.
As to `C[C@H]1CC2(CCN(c3ccc(C(=O)N4CCC(CN5CCN(c6cc7c(cc6F)C(=O)N(C6CCC(=O)NC6=O)C7=O)CC5)CC4)cc3)CC2)CN1c1ccc(C#N)c(Cl)c1` (stereo partly drawn) [Cpd. No. 444, 2-chloro-4-((3S)-8-(4-(4-((4-(2-(2,6-dioxopiperidin-3-yl)-6-fluoro-1,3-dioxoisoindolin-5-yl)piperazin-1-yl)methyl)piperidine-1-carbonyl)phenyl)-3-methyl-2,8-diazaspiro[4.5]decan-2-yl)benzonitrile], the F is on record as 68%. Besides, the AUC(0-t) under setting [1] worked out at 7800 ng·h/mL. For the setting “iv, 1 mg/kg, IV, dose 1 mg/kg”, the clearance is 1.83 mL/min/kg and the Vd is 1.2 L/kg. For the same compound, the half-life under setting [2] was 8.3 h. Moreover, where the note is “po, 3 mg/kg”, the concentration peaked (Cmax) at 1250 ng/mL and the Tmax was 4 h. In addition, the AUC(0-t) under setting [3] came to 16000 ng·h/mL. Besides, the half-life under setting [4] was 6.9 h.
Compound `C[C@H]1CC2(CCN(c3cnc(C(=O)N4CCC(CN5Cc6cc7c(cc6C5)C(=O)N(C5CCC(=O)NC5=O)C7=O)CC4)cn3)CC2)CN1c1ccc(C#N)c(Cl)c1` (stereo partly drawn) [Cpd. No. 495, 2-chloro-4-((3S)-8-(5-(4-((6-(2,6-dioxopiperidin-3-yl)-5,7-dioxo-3,5,6,7-tetrahydropyrrolo[3,4-f]isoindol-2(1H)-yl)methyl)piperidine-1-carbonyl)pyrazin-2-yl)-3-methyl-2,8-diazaspiro[4.5]decan-2-yl)benzonitrile] returned an F of 107%. Moreover, the area under the curve AUC(0-t) under setting [1] amounted to 950 ng·h/mL. Besides, where the note is “iv, 1 mg/kg, IV, dose 1 mg/kg”, the clearance is 16.2 mL/min/kg and the Vd stood at 2.59 L/kg. Moreover, the half-life under setting [2] was 2.6 h. For the setting “po, 3 mg/kg”, the Cmax was determined as 722 ng/mL and the Tmax was 0.8 h. Moreover, the AUC(0-t) under setting [3] came out at 3050 ng·h/mL. For the same compound, the half-life under setting [4] was 3.4 h.
Compound `C[C@H]1CC2(CCN(c3ccc(C(=O)N4CCN(C5CCN(c6cc7c(cc6F)C(=O)N(C6CCC(=O)NC6=O)C7=O)CC5)CC4)cc3)CC2)CN1c1ccc(C#N)c(Cl)c1` (stereo partly drawn) [Cpd. No. 540] registered an F of 61%. Under setting [1], the AUC(0-t) was found to be 7990 ng·h/mL. In addition, where the note is “iv, 1 mg/kg, IV, dose 1 mg/kg”, the clearance was 2 mL/min/kg and the Vd is 0.96 L/kg. Also, the half-life under setting [2] is 7.3 h. Also, under “po, 3 mg/kg”, the highest concentration (Cmax) came out at 1130 ng/mL and the Tmax turned out to be 3.3 h. In addition, the AUC(0-t) under setting [3] is 14500 ng·h/mL. Moreover, the half-life under setting [4] was 7.8 h.
In turn, `C[C@H]1CC2(CCN(c3ccc(C(=O)N4CC[C@@H](CN5CCN(c6ccc7c(c6)C(=O)N(C6CCC(=O)NC6=O)C7=O)CC5)C4)cc3)CC2)CN1c1ccc(C#N)c(Cl)c1` (stereo partly drawn) [compound 448] registered an F of 26%. Also, the AUC(0-t) under setting [1] is 78 ng·h/mL. Also, for the setting “iv, 1 mg/kg, IV, dose 1 mg/kg”, the clearance is 203 mL/min/kg and the Vd is 25.3 L/kg. Also, under setting [2], the half-life is 2.74 h. Moreover, under “po, 3 mg/kg”, the Cmax was 16 ng/mL and the Tmax came to 1.67 h. In addition, the AUC(0-t) under setting [3] stood at 60 ng·h/mL. The half-life under setting [4] is 4.78 h.
`C[C@H]1CC2(CCN(c3ccc(C(=O)N4CCN(CC5CCN(c6cc7c(cc6F)C(=O)N(C6CCC(=O)NC6=O)C7=O)CC5)CC4)nn3)CC2)CN1c1ccc(C#N)c(Cl)c1` (stereo partly drawn) [compound 588]: the F was 54%. Under setting [1], the area under the curve AUC(0-t) stood at 1080 ng·h/mL. Also, under “iv, 1 mg/kg, IV, dose 1 mg/kg”, the clearance was 13.8 mL/min/kg and the Vd was 6.76 L/kg. Under setting [2], the half-life was 9.5 h. For the setting “po, 3 mg/kg”, the Cmax was found to be 347 ng/mL and the Tmax was determined as 1 h. Under setting [3], the AUC(0-t) turned out to be 1760 ng·h/mL. Besides, the half-life under setting [4] is 5.9 h.
